# Laboratory results taken from paper PMC9693455, “Synthesis of Tetrasubstituted Phosphorus Analogs of Aspartic Acid as Antiproliferative Agents” (Molecules, 2022).
# Assays:
# [1] = system: SKOV3 (human ovarian carcinoma) cells; assay: In vitro cytotoxicity (antiproliferative activity), CCK-8 assay, SKOV3; assay type: cell-based; settings: for IC50: Homo sapiens, SK-OV-3, 48 h exposure, CCK-8
# Procedure: (§1) In vitro cytotoxicity of the phosphorated aspartic acid derivatives was evaluated by testing their antiproliferative activities against several human cancer cell lines. Cell counting kit (CCK-8) assay was used for the evaluation of growth inhibition. […] In addition, trisubstituted aminophosphonate 9a (Imine precursor, R^1 = H, R^2 = P(O)(OMe)2) and tetrasubstituted aminophosphonate 18 (R^1 = Me, R^2 = P(O)(OMe)2) are used as templates in order to evaluate the effect of the substituents (Table 1).
# (§2) Human epithelial lung carcinoma cells (A549) (ATCC® CCL-185™, ATCC, Manassas, VA, USA) were grown in Kaighn’s Modification of Ham’s F-12 Medium (ATCC® 30-2004™, ATCC, Manassas, VA, USA) and lung fibroblast cells (MRC5) (ATCC® CCL-171™, ATCC, Manassas, VA, USA) were grown in Eagle’s Minimum Essential Medium (EMEM, ATCC® 30-2003™, ATCC, Manassas, VA, USA). Epithelial ovary adenocarcinoma cells (SKOV3) (ATCC® HTB-77™, ATCC, Manassas, VA, USA) were grown in McCoy’s 5A medium (ATCC® 30-2007™, ATCC, Manassas, VA, USA). All of them were supplemented with 10% of fetal bovine serum (FBS) (Sigma-Aldrich, Madrid, Spain) and with 1% of NORMOCIN solution (Thermo Fisher, Waltham, MA, USA). Cells were incubated at 37 °C and 5% CO2 atmosphere, and were split every 3–4 days to maintain monolayer coverage. For the cytotoxicity experiments, the A549 and SKOV3 cells were seeded in 96-well plates at a density of 2.5–3 × 10^3 cells per well and incubated overnight to achieve 70% of confluence at the time of exposition to the cytotoxic compound.
# (§3) Cells were exposed to different concentrations of the cytotoxic compounds and were incubated for 48 h. Then, 10 µL of cell counting kit-8 was added into each well for an additional two hours’ incubation at 37 °C. The absorbance of each well was determined by an Automatic Elisa Reader System (Thermo Scientific Multiskan FC Automatic Elisa Reader System, Thermo Scientific, Shanghai, China) at 450 nm wavelength.
# [2] = system: MRC5 lung fibroblast cells; assay: Selective toxicity, CCK-8 assay, non-malignant MRC5 lung fibroblasts; assay type: cell-based; settings: for IC50: Homo sapiens, non-malignant MRC5 lung fibroblasts, 48 h exposure, CCK-8
# Procedure: as §1, §2, §3
# [3] = system: A549 (carcinomic human alveolar basal epithelial) cells; assay: In vitro cytotoxicity (antiproliferative activity), CCK-8 assay, A549; assay type: cell-based; settings: for IC50: 48 h exposure, CCK-8
# Procedure: as §1, §2, §3
SMILES,melting point,IC50 [1],IC50 [2],"IC50 ([3]; Homo sapiens, A549, 48 h)",cytotoxicity against SKOV3 cell line (in words) [1],toxicity toward MRC5 non-malignant cells (in words) [2],IC50 [3],IC50 ([3]; Homo sapiens),cytotoxicity against A549 cell line (in words) [3]
"CCOC(=O)CC(NS(=O)(=O)c1ccc(C)cc1)(c1ccccc1)P(=O)(OC)OC (centres unmarked) [7a, Ethyl 3-(dimethoxyphosphoryl)-3-((4-methylphenyl)sulfonamido)-3-phenylpropanoate]",98 to 99 °C,> 50 µM,> 50 µM,2.66 ± 0.26 µM,–,–,–,–,–
"CCOC(=O)CC(NS(=O)(=O)c1ccc(C)cc1)(c1ccc(C)cc1)P(=O)(OC)OC (centres unmarked) [7b, Ethyl 3-(dimethoxyphosphoryl)-3-((4-methylphenyl)sulfonamido)-3-(p-tolyl)propanoate]",117 to 118 °C,> 50 µM,29.6 ± 2.98 µM,0.34 ± 0.04 µM,no activity,some toxicity,–,–,–
"CCOC(=O)CC(NS(=O)(=O)c1ccc(C)cc1)(c1cccc(C)c1)P(=O)(OC)OC (centres unmarked) [7c, Ethyl 3-(dimethoxyphosphoryl)-3-((4-methylphenyl)sulfonamido)-3-(m-tolyl)propanoate]",103 to 104 °C,> 50 µM,> 50 µM,2 ± 0.52 µM,no activity,–,–,–,–
"CCOC(=O)CC(NS(=O)(=O)c1ccc(C)cc1)(c1ccc(SC(Cl)(Cl)Cl)cc1)P(=O)(OC)OC (centres unmarked) [7d, Ethyl 3-(dimethoxyphosphoryl)-3-((4-methylphenyl)sulfonamido)-3-(4-((trichloromethyl)thio)phenyl)propanoate]",123 to 124 °C,6.43 ± 0.64 µM,2.47 ± 0.3 µM,4.41 ± 0.29 µM,–,–,–,–,–
"CCOC(=O)CC(NS(=O)(=O)c1ccc(C)cc1)(c1ccc(Br)cc1)P(=O)(OC)OC (centres unmarked) [7e, Ethyl 3-(4-bromophenyl)-3-(dimethoxyphosphoryl)-3-((4-methylphenyl)sulfonamido)propanoate]",138 to 139 °C,> 50 µM,> 50 µM,1.08 ± 0.09 µM,–,–,–,–,–
"CCOC(=O)CC(NS(=O)(=O)c1ccc(C)cc1)(c1ccc(Cl)cc1)P(=O)(OC)OC (centres unmarked) [7f, Ethyl 3-(4-chlorophenyl)-3-(dimethoxyphosphoryl)-3-((4-methylphenyl)sulfonamido)propanoate]",133 to 134 °C,24.1 ± 1.45 µM,> 50 µM,3.09 ± 0.14 µM,–,–,–,–,–
"CCOC(=O)CC(NS(=O)(=O)c1ccc(C)cc1)(c1cccc(Cl)c1)P(=O)(OC)OC (centres unmarked) [7g, Ethyl 3-(3-chlorophenyl)-3-(dimethoxyphosphoryl)-3-((4-methylphenyl)sulfonamido)propanoate]",88 to 89 °C,> 50 µM,38.1 ± 1.61 µM,2.96 ± 0.34 µM,–,toxic against the healthy cells,–,–,–
"CCOC(=O)CC(NS(=O)(=O)c1ccc(C)cc1)(c1ccc(Cl)c(Cl)c1)P(=O)(OC)OC (centres unmarked) [7h, Ethyl 3-(3,4-dichlorophenyl)-3-(dimethoxyphosphoryl)-3-((4-methylphenyl)sulfonamido)propanoate]",109 to 110 °C,6.94 ± 0.63 µM,11.3 ± 1.16 µM,1.05 ± 0.42 µM,–,–,–,–,–
"CCOC(=O)CC(NS(=O)(=O)c1ccc(C)cc1)(c1ccc(OC)c(Cl)c1)P(=O)(OC)OC (centres unmarked) [7i, Ethyl 3-(3-chloro-4-methoxyphenyl)-3-(dimethoxyphosphoryl)-3-((4-methylphenyl)sulfonamido)propanoate]",153 to 154 °C,> 50 µM,> 50 µM,1.44 ± 0.15 µM,–,–,–,–,–
"CCOC(=O)CC(NS(=O)(=O)c1ccc(C)cc1)(c1ccc(F)cc1)P(=O)(OC)OC (centres unmarked) [7j, Ethyl 3-(dimethoxyphosphoryl)-3-(4-fluorophenyl)-3-((4-methylphenyl)sulfonamido)propanoate]",111 to 112 °C,> 50 µM,> 50 µM,7.15 ± 0.24 µM,–,–,–,–,–
"CCOC(=O)CC(NS(=O)(=O)c1ccc(C)cc1)(c1cccc(F)c1)P(=O)(OC)OC (centres unmarked) [7k, Ethyl 3-(dimethoxyphosphoryl)-3-(3-fluorophenyl)-3-((4-methylphenyl)sulfonamido)propanoate]",111 to 112 °C,> 50 µM,> 50 µM,0.34 µM,–,–,0.59 ± 0.09 µM,–,–
"CCOC(=O)CC(NS(=O)(=O)c1ccc(C)cc1)(c1ccccc1F)P(=O)(OC)OC (centres unmarked) [7l, Ethyl 3-(dimethoxyphosphoryl)-3-(2-fluorophenyl)-3-((4-methylphenyl)sulfonamido)propanoate]",140 to 141 °C,> 50 µM,> 50 µM,0.9 ± 0.12 µM,–,–,–,–,–
"CCOC(=O)CC(NS(=O)(=O)c1ccc(C)cc1)(c1ccc(F)cc1F)P(=O)(OC)OC (centres unmarked) [7m, Ethyl 3-(2,4-difluorophenyl)-3-(dimethoxyphosphoryl)-3-((4-methylphenyl)sulfonamido)propanoate]",135 to 136 °C,> 50 µM,> 50 µM,2.24 ± 0.31 µM,–,–,–,–,–
"CCOC(=O)CC(NS(=O)(=O)c1ccc(C)cc1)(c1ccc(F)c(F)c1)P(=O)(OC)OC (centres unmarked) [7n, Ethyl 3-(3,4-difluorophenyl)-3-(dimethoxyphosphoryl)-3-((4-methylphenyl)sulfonamido)propanoate]",98 to 99 °C,> 50 µM,> 50 µM,5.7 ± 0.7 µM,–,–,–,–,–
"CCOC(=O)CC(NS(=O)(=O)c1ccc(C)cc1)(c1c(F)c(F)c(F)c(F)c1F)P(=O)(OC)OC (centres unmarked) [7o, Ethyl 3-(dimethoxyphosphoryl)-3-((4-methylphenyl)sulfonamido)-3-(perfluorophenyl)propanoate]",–,20.5 ± 2.75 µM,> 50 µM,3.65 ± 0.21 µM,–,–,–,–,–
"CCOC(=O)CC(NS(=O)(=O)c1ccc(C)cc1)(c1ccc(C(F)(F)F)cc1)P(=O)(OC)OC (centres unmarked) [7p, Ethyl 3-(dimethoxyphosphoryl)-3-((4-methylphenyl)sulfonamido)-3-(4-(trifluoromethyl)phenyl)propanoate]",114 to 115 °C,9.8 ± 0.6 µM,> 50 µM,20.3 ± 1.14 µM,–,no toxicity,–,–,–
COP(=O)(OC)C(NS(=O)(=O)c1ccc(C)cc1)c1ccccc1 (centres unmarked) [9a],–,> 50 µM,> 50 µM,17.6 ± 1.3 µM,–,–,–,–,–
"COP(=O)(OC)C(CC(=O)OCc1ccccc1)(NS(=O)(=O)c1ccc(C)cc1)c1cccc(F)c1 (centres unmarked) [13a, Benzyl 3-(dimethoxyphosphoryl)-3-(3-fluorophenyl)-3-((4-methylphenyl)sulfonamido)propanoate]",78 to 79 °C,> 50 µM,–,12.8 ± 2.38 µM,no toxicity,–,–,–,–
CCOC(=O)C[C@](NS(=O)(=O)c1ccc(C)cc1)(c1cccc(F)c1)P(=O)(OC)OC [(R)-7k],–,–,–,1.61 ± 0.2 µM,–,–,–,–,–
CCOC(=O)C[C@@](NS(=O)(=O)c1ccc(C)cc1)(c1cccc(F)c1)P(=O)(OC)OC [(S)-7k],–,–,–,1.56 ± 0.39 µM,–,–,–,–,–
"COc1cccc2c1C(=O)c1c(O)c3c(c(O)c1C2=O)C[C@@](O)(C(=O)CO)C[C@@H]3O[C@H]1C[C@H](N)[C@H](O)[C@H](C)O1 [Doxorubicin, reference compound]",–,–,–,–,–,–,–,< 0.1 µM,–
"CCOC(=O)CC(NS(=O)(=O)c1ccc(C)cc1)c1ccccc1 (centres unmarked) [compound 5, Ethyl 3-((4-methylphenyl)sulfonamido)-3-phenylpropanoate]",–,> 50 µM,> 50 µM,–,–,–,–,18.7 ± 2.16 µM,–
"CCOC(=O)CC(NS(=O)(=O)c1ccc(C)cc1)(C(=O)OCC)c1ccccc1 (centres unmarked) [compound 6, Diethyl 2-((4-methylphenyl)sulfonamido)-2-phenylsuccinate]",–,> 50 µM,> 50 µM,–,–,–,–,14.2 ± 0.41 µM,–
"COC(=O)CC(NS(=O)(=O)c1ccc(C)cc1)(c1cccc(F)c1)P(=O)(OC)OC (centres unmarked) [compound 12, Methyl 3-(dimethoxyphosphoryl)-3-(3-fluorophenyl)-3-((4-methylphenyl)sulfonamido)propanoate]",115 to 116 °C,> 50 µM,–,24.1 ± 4.01 µM,no toxicity,–,–,–,–
"COP(=O)(OC)C(CC(=O)O)(NS(=O)(=O)c1ccc(C)cc1)c1ccccc1 (centres unmarked) [compound 14, 3-(Dimethoxyphosphoryl)-3-((4-methylphenyl)sulfonamido)-3-phenylpropanoic acid]",–,> 50 µM,> 50 µM,20.6 ± 1.05 µM,–,–,–,–,–
"COP(=O)(OC)C(C)(NS(=O)(=O)c1ccc(C)cc1)c1ccccc1 (centres unmarked) [compound 18, Dimethyl (1-((4-methylphenyl)sulfonamido)-1-phenylethyl)phosphonate]",–,> 50 µM,–,> 50 µM,–,–,–,–,no cytotoxicity
